# Results as given in PubChem BioAssay AID2060624 (Molecular Pharmacology Branch, DTP, NCI, 2025).
# pIC50: −log10 of the molar value.
# System: 217524-143-R1-J4-PDC spheroids with HUVEC/MSC, viability
# Test: Anticancer human tumor 217524-143-R1-J4-PDC patient-derived pancreatic carcinoma cell line growth inhibition [CLK]
# Conditions: for pIC50: curve of first compound; for viability, T/C: stronger effect = lower value
# Outline: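 Multi-cell-type spheroids combined patient-derived tumor cells with HUVEC endothelial cells and human mesenchymal stem cells. Paired agents were dosed in half-log steps down from about clinical Cmax, or from 10 microM where Cmax was unknown.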
# [1] = second compound 0.0316 µM, first compound 0.0316 µM
# [2] = second compound 0.0316 µM, first compound 0.1 µM
# [3] = second compound 0.0316 µM, first compound 0.316 µM
# [4] = second compound 0.0316 µM, first compound 1 µM
# [5] = second compound 0.1 µM, first compound 0.0316 µM
# [6] = second compound 0.1 µM, first compound 0.1 µM
# [7] = second compound 0.1 µM, first compound 0.316 µM
# [8] = second compound 0.1 µM, first compound 1 µM
# [9] = second compound 0.316 µM, first compound 0.0316 µM
# [10] = second compound 0.316 µM, first compound 0.1 µM
# [11] = second compound 0.316 µM, first compound 0.316 µM
# [12] = second compound 0.316 µM, first compound 1 µM
# [13] = second compound 1 µM, first compound 0.0316 µM
# [14] = second compound 1 µM, first compound 0.1 µM
# [15] = second compound 1 µM, first compound 0.316 µM
# [16] = second compound 1 µM, first compound 1 µM
# [17] = second compound 3.16 µM, first compound 0.0316 µM
# [18] = second compound 3.16 µM, first compound 0.1 µM
# [19] = second compound 3.16 µM, first compound 0.316 µM
# [20] = second compound 3.16 µM, first compound 1 µM
# [21] = second compound 10 µM, first compound 0.0316 µM
# [22] = second compound 10 µM, first compound 0.1 µM
# [23] = second compound 10 µM, first compound 0.316 µM
# [24] = second compound 10 µM, first compound 1 µM
# 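Note: spheroids exposed to agents for seven days before reading.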
# 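Throughout, for viability, T/C: 100% = DMSO vehicle control viability.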
compound,measurement,setting,value
CC(=O)O[C@H]1C(=O)[C@@]2(C)[C@H]([C@H](OC(=O)c3ccccc3)[C@]3(O)C[C@H](OC(=O)[C@H](O)[C@@H](NC(=O)c4ccccc4)c4ccccc4)C(C)=C1C3(C)C)[C@]1(OC(C)=O)CO[C@@H]1C[C@@H]2O + CN1CCN(c2cc(C(=O)Nc3cc4cc(-c5cnn(C)c5)ccc4cn3)ccn2)CC1,pIC50,second compound 0.0316 µM,> 7.50
same,pIC50,second compound 0.1 µM,> 7.50
same,pIC50,second compound 0.316 µM,> 7.50
same,pIC50,second compound 1 µM,> 7.50
same,pIC50,second compound 3.16 µM,> 7.50
same,pIC50,second compound 10 µM,> 7.50
same,"viability, T/C",[1],14.5%
same,"viability, T/C",[2],10.6%
same,"viability, T/C",[3],10.8%
same,"viability, T/C",[4],11.5%
same,"viability, T/C","second compound 0.0316 µM, first compound 3.16 µM",12.1%
same,"viability, T/C","second compound 0.0316 µM, first compound 10 µM",16.4%
same,"viability, T/C",[5],11.9%
same,"viability, T/C",[6],12.1%
same,"viability, T/C",[7],9.82%
same,"viability, T/C",[8],10.7%
same,"viability, T/C","second compound 0.1 µM, first compound 3.16 µM",10.8%
same,"viability, T/C","second compound 0.1 µM, first compound 10 µM",13.2%
same,"viability, T/C",[9],11.1%
same,"viability, T/C",[10],11.3%
same,"viability, T/C",[11],10.7%
same,"viability, T/C",[12],9.41%
same,"viability, T/C","second compound 0.316 µM, first compound 3.16 µM",11.7%
same,"viability, T/C","second compound 0.316 µM, first compound 10 µM",12.3%
same,"viability, T/C",[13],1.11%
same,"viability, T/C",[14],1.3%
same,"viability, T/C",[15],1.35%
same,"viability, T/C",[16],1.2%
same,"viability, T/C","second compound 1 µM, first compound 3.16 µM",2%
same,"viability, T/C","second compound 1 µM, first compound 10 µM",1.13%
same,"viability, T/C",[17],0.88%
same,"viability, T/C",[18],0.73%
same,"viability, T/C",[19],0.55%
same,"viability, T/C",[20],0.62%
same,"viability, T/C","second compound 3.16 µM, first compound 3.16 µM",1.1%
same,"viability, T/C","second compound 3.16 µM, first compound 10 µM",0.74%
same,"viability, T/C",[21],0.12%
same,"viability, T/C",[22],0.17%
same,"viability, T/C",[23],0.16%
same,"viability, T/C",[24],0.2%
same,"viability, T/C","second compound 10 µM, first compound 3.16 µM",0.34%
same,"viability, T/C","second compound 10 µM, first compound 10 µM",0.24%
CCc1c2c(nc3ccc(O)cc13)-c1cc3c(c(=O)n1C2)COC(=O)[C@]3(O)CC + CN1CCN(c2cc(C(=O)Nc3cc4cc(-c5cnn(C)c5)ccc4cn3)ccn2)CC1,pIC50,second compound 0.0316 µM,> 8.50
same,pIC50,second compound 0.1 µM,> 8.50
same,pIC50,second compound 0.316 µM,> 8.50
same,pIC50,second compound 1 µM,> 8.50
same,pIC50,second compound 3.16 µM,> 8.50
same,pIC50,second compound 10 µM,> 8.50
same,"viability, T/C","second compound 0.0316 µM, first compound 0.00316 µM",46.2%
same,"viability, T/C","second compound 0.0316 µM, first compound 0.01 µM",34.1%
same,"viability, T/C",[1],28.7%
same,"viability, T/C",[2],25.2%
same,"viability, T/C",[3],17.5%
same,"viability, T/C",[4],6.45%
same,"viability, T/C","second compound 0.1 µM, first compound 0.00316 µM",35.9%
same,"viability, T/C","second compound 0.1 µM, first compound 0.01 µM",30.1%
same,"viability, T/C",[5],21.9%
same,"viability, T/C",[6],17.5%
same,"viability, T/C",[7],14.5%
same,"viability, T/C",[8],5.83%
same,"viability, T/C","second compound 0.316 µM, first compound 0.00316 µM",14.8%
same,"viability, T/C","second compound 0.316 µM, first compound 0.01 µM",12.7%
same,"viability, T/C",[9],10.8%
same,"viability, T/C",[10],4%
same,"viability, T/C",[11],2.32%
same,"viability, T/C",[12],1.82%
same,"viability, T/C","second compound 1 µM, first compound 0.00316 µM",1.37%
same,"viability, T/C","second compound 1 µM, first compound 0.01 µM",1.13%
same,"viability, T/C",[13],0.98%
same,"viability, T/C",[14],1.39%
same,"viability, T/C",[15],1.84%
same,"viability, T/C",[16],2.32%
same,"viability, T/C","second compound 3.16 µM, first compound 0.00316 µM",1.13%
same,"viability, T/C","second compound 3.16 µM, first compound 0.01 µM",0.69%
same,"viability, T/C",[17],1.06%
same,"viability, T/C",[18],1.74%
same,"viability, T/C",[19],1.87%
same,"viability, T/C",[20],2.05%
same,"viability, T/C","second compound 10 µM, first compound 0.00316 µM",0.09%
same,"viability, T/C","second compound 10 µM, first compound 0.01 µM",0.16%
same,"viability, T/C",[21],0.24%
same,"viability, T/C",[22],0.19%
same,"viability, T/C",[23],0.31%
same,"viability, T/C",[24],0.19%
